Consider 43 compounds from US20260053861A1, “CELL COMPOSITIONS AND METHODS OF USING THE SAME” (THE REGENTS OF THE UNIVERSITY OF CALIFORNIA, priority 2022, published 2026).

Where a name gives a salt, the structure may show the parent alone.

The test system of the first assay is hPSC-SCs.
Details: not given
Compound `CC[C@H](C)[C@H]1O[C@]2(CC[C@@H]1C)C[C@@H]1C[C@@H](C/C=C(\C)[C@@H](O[C@H]3C[C@H](OC)[C@@H](O[C@H]4C[C@H](OC)[C@@H](O)[C@H](C)O4)[C@H](C)O3)[C@@H](C)/C=C/C=C3\CO[C@@H]4[C@H](O)C(C)=C[C@@H](C(=O)O1)[C@]34O)O2` [Ivermectin] gave a z.score.t of −1.866. `CCN1C[C@]2(C)CC[C@H](O)[C@]34C1[C@@H](C[C@H]23)[C@@]1(O)C[C@H](OC)[C@H]2C[C@@H]4[C@@H]1[C@H]2O` [Karakoline]: the z.score.t is 1.53. Turning to `COC1=CC(=O)O[C@@H](/C=C/c2ccccc2)C1` [Kawain], the z.score.t is listed as 0.9109. Regarding `Cl.OC1CCCCC1N1CCC(c2ccccc2)CC1` (stereo not drawn) [L(−)-vesamicol hydrochloride], the z.score.t is 0.6964.

For `CC(=O)O[C@H]1C[C@H](O[C@H]2[C@@H](O)C[C@H](O[C@H]3[C@@H](O)C[C@H](O[C@H]4CC[C@@]5(C)[C@H](CC[C@@H]6[C@@H]5C[C@@H](O)[C@]5(C)[C@@H](C7=CC(=O)OC7)CC[C@]65O)C4)O[C@@H]3C)O[C@@H]2C)O[C@H](C)[C@H]1O[C@@H]1O[C@H](CO)[C@@H](O)[C@H](O)[C@H]1O` [Lanatoside C], the z.score.t is recorded as −2.334. In the case of `CC1=CC(=O)C2=C(C)CC[C@@H]3[C@H](OC(=O)[C@H]3C)[C@@H]12` [Leucomisine], the z.score.t is listed as 1.214. Same read-out and setting: the value for `C[C@H](N)[C@H](O)c1ccc(O)c(O)c1` [Levonordefrin] was 0.1916; that for `CCC(=O)O[C@@](Cc1ccccc1)(c1ccccc1)[C@@H](C)CN(C)C` [Levopropoxyphene napsylate] was −0.5351. Still for that read-out and setting: the value for `CCN(CC)CC(=O)Nc1c(C)cccc1C.Cl` [LidocaÂ<ne hydrochloride] was −0.01953; that for `CN1[C@@H](C[C@@H](O)c2ccccc2)CCC[C@H]1C[C@H](O)c1ccccc1.Cl` [Lobelanidine hydrochloride] was −0.3319.

`CN1[C@@H](CC(=O)c2ccccc2)CCC[C@H]1C[C@H](O)c1ccccc1.Cl` [Lobeline alpha (−) hydrochoride] gave a z.score.t of −0.2904. `CN(C)C(=O)C(CCN1CCC(O)(c2ccc(Cl)cc2)CC1)(c1ccccc1)c1ccccc1` [Loperamide hydrochloride] had a z.score.t of −1.329. The compound `COC1=C[C@@H]2C3=C([C@@H]2C1=O)[C@@H](NC(C)=O)CCc1cc(OC)c(OC)c(OC)c13` [Lumicolchicine gamma] showed a z.score.t of 1.528. Turning to `CN1C[C@H](CO)C=C2c3cccc4[nH]cc(c34)C[C@H]21` [Lysergol], the z.score.t was found to be 0.1979.

Still in this assay, the particulars now being: HTS viability of hPSC-SCs in the presence of 30 mM glucose; Prestwick library; Table S4.
As for `CO[C@@H]1[C@@H](O[C@@H]2O[C@H](C)[C@@H](O[C@H]3C[C@@](C)(O)[C@@H](OC(=O)CC(C)C)[C@H](C)O3)[C@H](N(C)C)[C@H]2O)[C@@H](CC=O)C[C@@H](C)[C@@H](O)/C=C/C=C/C[C@@H](C)OC(=O)C[C@H]1OC(C)=O` [Josamycin], the z.score.t is on record as −0.827. With `O=c1c(O)c(-c2ccc(O)cc2)oc2cc(O)cc(O)c12` [Kaempferol], the z.score.t is on record as −1.014.

`NC[C@H]1O[C@H](O[C@H]2[C@H](O)[C@@H](O[C@H]3O[C@H](CO)[C@@H](O)[C@H](N)[C@H]3O)[C@H](N)C[C@@H]2N)[C@H](O)[C@@H](O)[C@@H]1O.O=S(=O)(O)O` [Kanamycin A sulfate]: the z.score.t was 0.07052. As for `CC(=O)N1CCN(c2ccc(OCC3COC(Cn4ccnc4)(c4ccc(Cl)cc4Cl)O3)cc2)CC1` (stereo not shown) [Ketoconazole], the z.score.t is listed as 1.669. Consider `CC(C(=O)O)c1cccc(C(=O)c2ccccc2)c1` (stereo not shown) [Ketoprofen], for which the z.score.t was −1.014.

As to `O=C(c1ccccc1)c1ccc2n1CCC2C(=O)O` (stereo not shown) [Ketorolac tromethamine], the z.score.t was found to be 0.8465. Consider `CN1CCC(=C2c3ccccc3CC(=O)c3sccc32)CC1` [Ketotifen fumarate], for which the z.score.t is given as −0.7415.

With `COc1c2occc2c(OC)c2c(=O)cc(C)oc12` [Khellin], the z.score.t came to 0.7913. `CC(CCc1ccccc1)NCC(O)c1ccc(O)c(C(N)=O)c1` (stereo not shown) [Labetalol hydrochloride]: the z.score.t stood at 0.7665. In the case of `O=C(O)[C@H](O)[C@@H](O)[C@H](O[C@@H]1O[C@H](CO)[C@H](O)[C@H](O)[C@H]1O)[C@H](O)CO` [Lactobionic acid], the z.score.t was 1.942. Same read-out and setting: the value for `Cc1c(OCC(F)(F)F)ccnc1C[S+]([O-])c1nc2ccccc2[nH]1` (stereo not shown) [Lansoprazole] was 1.808; that for `CC[C@@H](C(=O)[C@@H](C)[C@@H](O)[C@H](C)CCc1ccc(C)c(O)c1C(=O)O)[C@H]1O[C@](CC)([C@H]2CC[C@](O)(CC)[C@H](C)O2)C[C@@H]1C` [Lasalocid sodium salt] was −2.368; that for `Cc1oncc1C(=O)Nc1ccc(C(F)(F)F)cc1` [Leflunomide] was 0.9178. `N#Cc1ccc(C(c2ccc(C#N)cc2)n2cncn2)cc1` [Letrozole]: the z.score.t is −0.4953. With `c1ccc([C@H]2CN3CCSC3=N2)cc1` [Levamisole hydrochloride], the z.score.t came out at 0.4064. Regarding `C[C@@H]1CN([C@H]2CC[C@](C#N)(c3ccc(F)cc3)CC2)CC[C@]1(C(=O)O)c1ccccc1` [Levocabastine hydrochloride], the z.score.t was −0.6516.

As to `N[C@@H](Cc1ccc(O)c(O)c1)C(=O)O` [Levodopa], the z.score.t was −1.365.

On to `Cc1cccc(C)c1NC(=O)CN1CCN(CCCC(c2ccc(F)cc2)c2ccc(F)cc2)CC1` [Lidoflazine], for which the z.score.t was −1.03.

In the case of `CCC[C@@H]1C[C@@H](C(=O)N[C@@H]([C@H]2O[C@H](SC)[C@H](O)[C@@H](O)[C@H]2O)[C@@H](C)O)N(C)C1` [Lincomycin hydrochloride], the z.score.t was determined as 0.1446. Still for that read-out and setting: the value for `N[C@@H](Cc1cc(I)c(Oc2ccc(O)c(I)c2)c(I)c1)C(=O)O` [Liothyronine] was −1.539; that for `NCCCC[C@H](N[C@@H](CCc1ccccc1)C(=O)O)C(=O)N1CCC[C@H]1C(=O)O` [Lisinopril] was 0.08508. In the case of `C[C@H](CCC(=O)O)[C@H]1CC[C@H]2[C@@H]3CC[C@@H]4C[C@H](O)CC[C@]4(C)[C@H]3CC[C@]12C` [Lithocholic acid], the z.score.t was −0.7945. The same measure, in the same setting: to `CCn1cc(C(=O)O)c(=O)c2cc(F)c(N3CCNC(C)C3)c(F)c21` (stereo not shown) [Lomefloxacin hydrochloride] belongs −0.9109; to `CCCCCN(CCCCC)C(=O)C(CCC(=O)O)NC(=O)c1ccc(Cl)c(Cl)c1` (stereo not shown) [Lorglumide sodium salt], 1.824. Regarding `CC[C@H](C)C(=O)O[C@H]1C[C@@H](C)C=C2C=C[C@H](C)[C@H](CC[C@@H]3C[C@@H](O)CC(=O)O3)[C@H]21` [Lovastatin], the z.score.t is −0.865. On to `CN1CCN(C2=Nc3ccccc3Oc3ccc(Cl)cc32)CC1` [Loxapine succinate], for which the z.score.t is −0.2278. As for `O=c1cc(-c2ccc(O)c(O)c2)oc2cc(O)cc(O)c12` [Luteolin], the z.score.t is reported as −0.7945. On to `CN(C)[C@@H]1C(O)=C(C(=O)NCNCCCC[C@H](N)C(=O)O)C(=O)[C@@]2(O)C(O)=C3C(=O)c4c(O)cccc4[C@@](C)(O)[C@H]3C[C@@H]12` [Lymecycline], for which the z.score.t is on record as −0.5745. For `C#C[C@]1(O)CC[C@H]2[C@@H]3CCC4=CCCC[C@@H]4[C@H]3CC[C@@]21C` [Lynestrenol], the z.score.t is on record as −1.847.
